Measurements reported in ChEMBL document CHEMBL5252555, “Antimicrobial Polyketides from the Marine-Derived Fungus Spiromastix sp. SCSIO F190” (J Nat Prod, 2023).
≈ marks a conversion by molar mass, not a printed value.

Tests used:
Type in all cases: functional
Staphylococcus aureus [1] = experiment: Antibacterial activity against Staphylococcus aureus ATCC 29213 assessed as inhibition of bacterial growth incubated for 18 hrs by broth microdilution method
Staphylococcus aureus [2] = experiment: Antibacterial activity against Staphylococcus aureus 16339 assessed as inhibition of bacterial growth incubated for 18 hrs by broth microdilution method
Staphylococcus aureus [3] = experiment: Antibacterial activity against Staphylococcus aureus 1862 assessed as inhibition of bacterial growth incubated for 18 hrs by broth microdilution method
Staphylococcus aureus [4] = experiment: Antibacterial activity against Staphylococcus aureus 3090 assessed as inhibition of bacterial growth incubated for 18 hrs by broth microdilution method
Staphylococcus aureus [5] = experiment: Antibacterial activity against Staphylococcus aureus 991 assessed as inhibition of bacterial growth incubated for 18 hrs by broth microdilution method
Staphylococcus aureus [6] = experiment: Antibacterial activity against Staphylococcus aureus 669 assessed as inhibition of bacterial growth incubated for 18 hrs by broth microdilution method
Staphylococcus aureus [7] = experiment: Antibacterial activity against Staphylococcus aureus 745324 assessed as inhibition of bacterial growth incubated for 18 hrs by broth microdilution method
Staphylococcus aureus [8] = experiment: Antibacterial activity against Staphylococcus aureus 16162 assessed as inhibition of bacterial growth incubated for 18 hrs by broth microdilution method
Enterococcus faecalis [9] = experiment: Antibacterial activity against Enterococcus faecalis ATCC 29212 assessed as inhibition of bacterial growth incubated for 18 hrs by broth microdilution method
Staphylococcus aureus [10] = experiment: Antibacterial activity against Staphylococcus aureus GDE4P037P assessed as inhibition of bacterial growth incubated for 18 hrs by broth microdilution method
Enterococcus faecalis [11] = experiment: Antibacterial activity against Enterococcus faecalis 36950 assessed as inhibition of bacterial growth incubated for 18 hrs by broth microdilution method
Micrococcus luteus = experiment: Antibacterial activity against Micrococcus luteus ML01 assessed as inhibition of bacterial growth incubated for 18 hrs by broth microdilution method
Staphylococcus simulans = experiment: Antibacterial activity against Staphylococcus simulans AKA1 assessed as inhibition of bacterial growth incubated for 18 hrs by broth microdilution method
Enterococcus faecium [12] = experiment: Antibacterial activity against Enterococcus faecium 36235 assessed as inhibition of bacterial growth incubated for 18 hrs by broth microdilution method
Bacillus subtilis = experiment: Antibacterial activity against Bacillus subtilis BS01 assessed as inhibition of bacterial growth incubated for 18 hrs by broth microdilution method
Enterococcus faecium [13] = experiment: Antibacterial activity against Enterococcus faecium 35682 assessed as inhibition of bacterial growth incubated for 18 hrs by broth microdilution method
Enterococcus gallinarum = experiment: Antibacterial activity against Enterococcus gallinarum 5F52C assessed as inhibition of bacterial growth incubated for 18 hrs by broth microdilution method
Enterococcus faecium [14] = experiment: Antibacterial activity against Enterococcus faecium 36711 assessed as inhibition of bacterial growth incubated for 18 hrs by broth microdilution method
Staphylococcus aureus [15] = experiment: Antibacterial activity against Staphylococcus aureus 718306 assessed as inhibition of bacterial growth incubated for 18 hrs by broth microdilution method
Staphylococcus aureus [16] = experiment: Antibacterial activity against Staphylococcus aureus 6917 assessed as inhibition of bacterial growth incubated for 18 hrs by broth microdilution method
Staphylococcus aureus [17] = experiment: Antibacterial activity against methicillin-resistant Staphylococcus aureus assessed as inhibition of bacterial growth incubated for 18 hrs by broth microdilution method

Row | Compound | MIC (Staphylococcus aureus [1]) [µg/mL] | MIC (Staphylococcus aureus [2]) [µg/mL] | MIC (Staphylococcus aureus [3]) [µg/mL] | MIC (Staphylococcus aureus [4]) [µg/mL] | MIC (Staphylococcus aureus [5]) [µg/mL] | MIC (Staphylococcus aureus [6]) [µg/mL] | MIC (Staphylococcus aureus [7]) [µg/mL] | MIC (Staphylococcus aureus [8]) [µg/mL] | MIC (Enterococcus faecalis [9]) [µg/mL] | MIC (Staphylococcus aureus [10]) [µg/mL] | MIC (Enterococcus faecalis [11]) [µg/mL] | MIC (Micrococcus luteus) [µg/mL] | MIC (Staphylococcus simulans) [µg/mL] | MIC (Enterococcus faecium [12]) [µg/mL] | MIC (Bacillus subtilis) [µg/mL] | MIC (Enterococcus faecium [13]) [µg/mL] | MIC (Enterococcus gallinarum) [µg/mL] | MIC (Enterococcus faecium [14]) [µg/mL] | MIC (Staphylococcus aureus [15]) [µg/mL] | MIC (Staphylococcus aureus [16]) [µg/mL] | other results
1 | CCCc1c(Cl)c(O)c(Cl)c2c1Oc1c(Cl)c(O)c(Cl)c(CCC)c1C(=O)O2 | 2 (≈ 4.29 µM) | 2 (≈ 4.29 µM) | 2 (≈ 4.29 µM) | 4 (≈ 8.58 µM) | 2 (≈ 4.29 µM) | 2 (≈ 4.29 µM) | 4 (≈ 8.58 µM) | 4 (≈ 8.58 µM) | 2 (≈ 4.29 µM) | 2 (≈ 4.29 µM) | 1 (≈ 2.15 µM) | 2 (≈ 4.29 µM) | 2 (≈ 4.29 µM) | 8 (≈ 17.2 µM) | 0.25 (≈ 0.536 µM) | 4 (≈ 8.58 µM) | 2 (≈ 4.29 µM) | 4 (≈ 8.58 µM) | 4 (≈ 8.58 µM) | 8 (≈ 17.2 µM) | MIC (Staphylococcus aureus [17]): 2 µg/mL (≈ 4.29 µM)
2 | CCCc1c(Cl)c(O)cc2c1Oc1cc(O)c(Cl)c(CCC)c1C(=O)O2 | 4 (≈ 10.1 µM) | 4 (≈ 10.1 µM) | 4 (≈ 10.1 µM) | 4 (≈ 10.1 µM) | 2 (≈ 5.03 µM) | 2 (≈ 5.03 µM) | 4 (≈ 10.1 µM) | 4 (≈ 10.1 µM) | 8 (≈ 20.1 µM) | 8 (≈ 20.1 µM) | 2 (≈ 5.03 µM) | 8 (≈ 20.1 µM) | 4 (≈ 10.1 µM) | 16 (≈ 40.3 µM) | 1 (≈ 2.52 µM) | 32 (≈ 80.6 µM) | 8 (≈ 20.1 µM) | 16 (≈ 40.3 µM) | 8 (≈ 20.1 µM) | 8 (≈ 20.1 µM) | MIC (Staphylococcus aureus [17]): 4 µg/mL (≈ 10.1 µM)
3 | CN[C@H](CC(C)C)C(=O)N[C@H]1C(=O)N[C@@H](CC(N)=O)C(=O)N[C@H]2C(=O)N[C@H]3C(=O)N[C@H](C(=O)N[C@H](C(=O)O)c4cc(O)cc(O)c4-c4cc3ccc4O)[C@H](O)c3ccc(c(Cl)c3)Oc3cc2cc(c3O[C@@H]2O[C@H](CO)[C@@H](O)[C@H](O)[C@H]2O[C@H]2C[C@](C)(N)[C@H](O)[C@H](C)O2)Oc2ccc(cc2Cl)[C@H]1O [VANCOMYCIN] |  |  |  |  |  |  |  |  | 2 (≈ 1.38 µM) |  | 0.5 (≈ 0.345 µM) | 0.13 (≈ 0.0897 µM) | 0.5 (≈ 0.345 µM) | > 64 | 0.125 (≈ 0.0863 µM) | > 64 | 4 (≈ 2.76 µM) | > 64 |  |  | 
4 | COc1c(Cl)c(O)c(Cl)c2c1C(=O)O[C@H](C)C2 | > 128 | > 128 | > 128 | > 128 | > 128 | > 128 | > 128 | > 128 | > 128 | > 128 | > 128 | > 128 | > 128 | > 128 | > 128 | > 128 | > 128 | > 128 | > 128 | > 128 | MIC (Staphylococcus aureus [17]): > 128 µg/mL
5 | CCCc1c(Cl)c(OC)c(Cl)c2c1OC(=O)c1c(CCC)c(Cl)c(O)c(Cl)c1O2 | 32 (≈ 66.6 µM) | 8 (≈ 16.7 µM) | 8 (≈ 16.7 µM) | 8 (≈ 16.7 µM) | 16 (≈ 33.3 µM) | 8 (≈ 16.7 µM) | 8 (≈ 16.7 µM) | 8 (≈ 16.7 µM) | 16 (≈ 33.3 µM) | 4 (≈ 8.33 µM) | 2 (≈ 4.17 µM) | 1 (≈ 2.08 µM) | 1 (≈ 2.08 µM) | 4 (≈ 8.33 µM) | 0.5 (≈ 1.04 µM) | 8 (≈ 16.7 µM) | 2 (≈ 4.17 µM) | 4 (≈ 8.33 µM) | 16 (≈ 33.3 µM) | 4 (≈ 8.33 µM) | MIC (Staphylococcus aureus [17]): 8 µg/mL (≈ 16.7 µM)
6 | CCCc1c(O)c(Oc2c(Cl)c(O)c(Cl)c(CCC)c2C(=O)OC)c(Cl)c(OC)c1Cl | 8 (≈ 15.6 µM) | 8 (≈ 15.6 µM) | 8 (≈ 15.6 µM) | 8 (≈ 15.6 µM) | 8 (≈ 15.6 µM) | 8 (≈ 15.6 µM) | 8 (≈ 15.6 µM) | 8 (≈ 15.6 µM) | 16 (≈ 31.2 µM) | 16 (≈ 31.2 µM) | 4 (≈ 7.81 µM) | 4 (≈ 7.81 µM) | 4 (≈ 7.81 µM) | 8 (≈ 15.6 µM) | 4 (≈ 7.81 µM) | 16 (≈ 31.2 µM) | 4 (≈ 7.81 µM) | 8 (≈ 15.6 µM) | 16 (≈ 31.2 µM) | 8 (≈ 15.6 µM) | MIC (Staphylococcus aureus [17]): 8 µg/mL (≈ 15.6 µM)
